From US11230717B2, “Plants having increased tolerance to herbicides” (BASF SE, priority 2013, dated 2022)
Values joined by “and” are separate entries in the source; they are usually repeats but may differ in a detail not shown here. Equal entries are not always repeated.

Tests used:
[1] = test system: Avena HPPD; test: HPPD activity assay, in vitro characterization; format: biochemical, Avena sativa; settings: normalized to Hordeum SEQ ID NO:2
Method: (§1) HPPD produces homogentisic acid and CO2 from 4-hydroxyphenylpyruvate (4-HPP) and O2. The activity assay for HPPD is based on the analysis of homogentisic acid by reversed phase HPLC.
(§2) The assay mixture can contain 150 mM potassium phosphate buffer pH 7.0, 50 mM L-ascorbic acid, 100 μM Catalase (Sigma-Aldrich), 1 μM FeSO4 and 0.2 units of purified HPPD enzyme in a total volume of 505 μl. 1 unit is defined as the amount of enzyme that is required to produce 1 nmol of HGA per minute at 20° C.
(§3) After a preincubation of 30 min the reaction is started by adding 4-HPP to a final concentration of 0.05 mM. The reaction is allowed to proceed for 45 min at room temperature. The reaction is stopped by the addition of 50 μl of 4.5 M phosphoric acid. The sample is filtered using a […] pore size PVDF filtration device.
(§4) 5 μl of the cleared sample is analyzed on an UPLC HSS T3 column (particle size 1.8 μm, dimensions 2,1×50 mm; Waters) by isocratic elution using 90% 20 mM NaH2PO4 pH 2.2, 10% methanol (v/v).
(§5) HGA is detected electrochemically at 750 mV (mode: DC; polarity: positive) and quantified by integrating peak areas (Empower software; Waters).
Inhibitors are dissolved in DMSO (dimethylsulfoxide) to a concentration of 0.5 mM. From this stock solution serial five-fold dilutions are prepared in DMSO, which are used in the assay. […] IC50 values are calculated using non-linear regression. […]

[2] = molecular target: T1, Hordeum HPPD variant R309K (Hordeum vulgare, UniProt O48604, A164G/R146V/R147D/R148G/R309K); test: HPPD activity assay, in vitro characterization of HPPD mutants; format: biochemical; settings: normalized to wild-type
T1 construct: His (N); made in house; host or cells: E. coli BL21 (DE3)
T1 sequence (O48604 whole entry R146V/R147D/R148G/A164G/R309K): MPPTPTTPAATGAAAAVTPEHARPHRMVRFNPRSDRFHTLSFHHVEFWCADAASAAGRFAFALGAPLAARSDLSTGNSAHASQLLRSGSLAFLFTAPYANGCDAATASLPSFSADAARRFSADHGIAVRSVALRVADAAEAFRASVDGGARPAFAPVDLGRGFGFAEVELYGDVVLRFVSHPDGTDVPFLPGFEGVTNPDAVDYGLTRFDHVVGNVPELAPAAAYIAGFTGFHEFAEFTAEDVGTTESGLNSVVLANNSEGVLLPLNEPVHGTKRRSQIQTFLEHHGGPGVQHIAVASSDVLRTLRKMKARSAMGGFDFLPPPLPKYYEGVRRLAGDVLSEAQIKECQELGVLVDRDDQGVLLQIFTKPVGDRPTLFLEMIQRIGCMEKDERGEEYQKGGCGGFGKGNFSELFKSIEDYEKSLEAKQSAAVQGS
Method: as §1, §2, §3, §4, §5
(§6) Inhibitors are dissolved in DMSO (dimethylsulfoxide) to a concentration of 0.5 mM. From this stock solution serial five-fold dilutions are prepared in DMSO, which are used in the assay. The respective inhibitor solution accounts for 1% of the assay volume. […] Activities are normalized by setting the uninhibited enzyme activity to 100%. IC50 values are calculated using non-linear regression.
(§7) Purified, mutant HPPD enzymes are obtained by the methods described above. Dose response and kinetic measurements are carried out using the described HPPD activity assay. Apparent michaelis constants (Km) and maximal reaction velocities (Vmax) are calculated by non-linear regression with the software GraphPad Prism 5 (GraphPad Software, La Jolla, USA) using a substrate inhibition model. […] Weighted means (by standard error) of Km and IC50 values are calculated from at least three independent experiments.
(§8) Field performance of the optimized HPPD enzyme, which is used as a herbicide tolerance trait may depend not only on its lack of sensitivity towards HPPD inhibiting herbicides but also on its activity. To assess the potential performance of a herbicide tolerance trait a tolerance index (TI) is calculated using the following formula: […]

[3] = molecular target: T2, Arabidopsis HPPD variant M335H, P336G, E363Q (Arabidopsis thaliana, UniProt P93836, E363Q/M335H/P336G); test: as above; format: biochemical; settings: normalized to wildtype
T2 construct: His6 (N); made in house; host or cells: E. coli BL21 (DE3)
T2 sequence (P93836 whole entry M335H/P336G/E363Q): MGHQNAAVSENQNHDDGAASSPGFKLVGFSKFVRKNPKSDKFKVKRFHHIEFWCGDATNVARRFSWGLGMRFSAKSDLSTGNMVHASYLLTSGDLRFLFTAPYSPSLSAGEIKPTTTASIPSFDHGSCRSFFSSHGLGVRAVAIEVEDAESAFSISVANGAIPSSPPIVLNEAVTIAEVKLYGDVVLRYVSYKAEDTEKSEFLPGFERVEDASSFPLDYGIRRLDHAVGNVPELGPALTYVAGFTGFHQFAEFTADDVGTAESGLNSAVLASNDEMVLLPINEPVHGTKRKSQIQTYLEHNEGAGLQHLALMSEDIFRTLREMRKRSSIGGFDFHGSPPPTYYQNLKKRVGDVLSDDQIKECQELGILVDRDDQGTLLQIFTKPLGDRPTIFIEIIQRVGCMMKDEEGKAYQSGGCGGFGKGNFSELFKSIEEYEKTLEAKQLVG
Method: as §1, §2, §3, §4, §5, §6, §7, §8

[4] = molecular target: T3, Hordeum HPPD variant S252T (Hordeum vulgare, UniProt O48604, A164G/R146V/R147D/R148G/S252T); test: as above; format: biochemical; settings: normalized to wild-type
T3 construct: His (N); made in house; host or cells: E. coli BL21 (DE3)
T3 sequence (O48604 whole entry R146V/R147D/R148G/A164G/S252T): as the sequence (O48604 whole entry R146V/R147D/R148G/A164G/R309K) above, with S252T, K309R counted along it
Method: as §1, §2, §3, §4, §5, §6, §7, §8

[5] = molecular target: T4, Arabidopsis HPPD variant M335H, P336G (Arabidopsis thaliana, UniProt P93836, M335H/P336G); test: as above; format: biochemical; settings: normalized to wildtype
T4 construct: His6 (N); made in house; host or cells: E. coli BL21 (DE3)
T4 sequence (P93836 whole entry M335H/P336G): as the sequence (P93836 whole entry M335H/P336G/E363Q) above, with Q363E counted along it
Method: as §1, §2, §3, §4, §5, §6, §7, §8

[6] = molecular target: T5, Hordeum HPPD variant F404L (Hordeum vulgare, UniProt O48604, A164G/F404L/R146V/R147D/R148G); test: as above; format: biochemical; settings: normalized to wild-type
T5 construct: His (N); made in house; host or cells: E. coli BL21 (DE3)
T5 sequence (O48604 whole entry R146V/R147D/R148G/A164G/F404L): as the sequence (O48604 whole entry R146V/R147D/R148G/A164G/R309K) above, with K309R, F404L counted along it
Method: as §1, §2, §3, §4, §5, §6, §7, §8

[7] = molecular target: T6, Arabidopsis HPPD variant F381L (Arabidopsis thaliana, UniProt P93836, F381L); test: as above; format: biochemical; settings: normalized to wildtype
T6 construct: His6 (N); made in house; host or cells: E. coli BL21 (DE3)
T6 sequence (P93836 whole entry F381L): as the sequence (P93836 whole entry M335H/P336G/E363Q) above, with H335M, G336P, Q363E, F381L counted along it
Method: as §1, §2, §3, §4, §5, §6, §7, §8

[8] = molecular target: T7, Hordeum HPPD variant L250M (Hordeum vulgare, UniProt O48604, A164G/L250M/R146V/R147D/R148G); test: as above; format: biochemical; settings: normalized to wild-type
T7 construct: His (N); made in house; host or cells: E. coli BL21 (DE3)
T7 sequence (O48604 whole entry R146V/R147D/R148G/A164G/L250M): as the sequence (O48604 whole entry R146V/R147D/R148G/A164G/R309K) above, with L250M, K309R counted along it
Method: as §1, §2, §3, §4, §5, §6, §7, §8

[9] = molecular target: T8, Hordeum HPPD variant L353M, P321R, L320N (Hordeum vulgare, UniProt O48604, L320N/L353M/P321R); test: as above; format: biochemical; settings: normalized to wild-type
T8 construct: His (N); made in house; host or cells: E. coli BL21 (DE3)
T8 sequence (O48604 whole entry R146V/R147D/R148G/A164G/L320N/P321R/L353M): as the sequence (O48604 whole entry R146V/R147D/R148G/A164G/R309K) above, with K309R, L320N, P321R, L353M counted along it
Method: as §1, §2, §3, §4, §5, §6, §7, §8

[10] = molecular target: T9, Hordeum HPPD variant L320H, P321A (Hordeum vulgare, UniProt O48604, L320H/P321A); test: as above; format: biochemical; settings: normalized to wild-type
T9 construct: His (N); made in house; host or cells: E. coli BL21 (DE3)
T9 sequence (O48604 whole entry R146V/R147D/R148G/A164G/L320H/P321A): as the sequence (O48604 whole entry R146V/R147D/R148G/A164G/R309K) above, with K309R, L320H, P321A counted along it
Method: as §1, §2, §3, §4, §5, §6, §7, §8

[11] = molecular target: T10, Hordeum HPPD variant F377L (Hordeum vulgare, UniProt O48604, A164G/F377L/R146V/R147D/R148G); test: as above; format: biochemical; settings: normalized to wild-type
T10 construct: His (N); made in house; host or cells: E. coli BL21 (DE3)
T10 sequence (O48604 whole entry R146V/R147D/R148G/A164G/F377L): as the sequence (O48604 whole entry R146V/R147D/R148G/A164G/R309K) above, with K309R, F377L counted along it
Method: as §1, §2, §3, §4, §5, §6, §7, §8

[12] = molecular target: T11, Hordeum HPPD variant L320H (Hordeum vulgare, UniProt O48604, A164G/L320H/R146V/R147D/R148G); test: as above; format: biochemical; settings: normalized to wild-type
T11 construct: His (N); made in house; host or cells: E. coli BL21 (DE3)
T11 sequence (O48604 whole entry R146V/R147D/R148G/A164G/L320H): as the sequence (O48604 whole entry R146V/R147D/R148G/A164G/R309K) above, with K309R, L320H counted along it
Method: as §1, §2, §3, §4, §5, §6, §7, §8

## Cn1nnnc1NC(=O)c1c(F)cc(Cl)c(S(C)(=O)=O)c1Cl [Inhibitor 1, 2,4-dichloro-6-fluoro-3-methylsulfonyl-N-(1-methyltetrazol-5-yl)benzamide]
[1]
  Normalized tolerance index (TI): 2.8
[2]
  Normalized tolerance index (TI): 2.6
[3]
  Normalized tolerance index (TI): 0.2
[4]
  Normalized tolerance index (TI): 1.8
[5]
  Normalized tolerance index (TI): 0.5
[6]
  Normalized tolerance index (TI): 1.6
[7]
  Normalized tolerance index (TI): 1.2
[8]
  Normalized tolerance index (TI): 3.1
[9]
  Normalized tolerance index (TI): 1.9
[10]
  Normalized tolerance index (TI): 3.7
[11]
  Normalized tolerance index (TI): 11.8
[12]
  Normalized tolerance index (TI): 4 and 4.6

## CSc1c(Cl)cc(F)c(C(=O)Nc2ncnn2C)c1Cl [Inhibitor 3, 2,4-dichloro-6-fluoro-3-methylsulfanyl-N-(2-methyl-1,2,4-triazol-3-yl)benzamide]
[1]
  Normalized tolerance index (TI): 2.8
[2]
  Normalized tolerance index (TI): 3
[3]
  Normalized tolerance index (TI): 0.3
[4]
  Normalized tolerance index (TI): 11.1
[5]
  Normalized tolerance index (TI): 0.1
[6]
  Normalized tolerance index (TI): 1.8
[7]
  Normalized tolerance index (TI): 0.2
[8]
  Normalized tolerance index (TI): 1
[9]
  Normalized tolerance index (TI): 0.9
[10]
  Normalized tolerance index (TI): 14.3
[11]
  Normalized tolerance index (TI): 2
[12]
  Normalized tolerance index (TI): 1.9
